Laboratory results: patent publication US20240270821A1, “GIP/GLP1/GCG TRI-RECEPTOR AGONISTS AND USES THEREOF” (priority 2023, published 2024)
Like-named read-outs stand apart in the source and are kept apart here. Starred links: 1 amine or outer side, 2 acyl side, 3 side chain; linkers in the order of their positions; H or OH if unused. Non-standard residues stand in square brackets, D forms with d. Residues, ends and D or L forms follow the SMILES beside them. Groups on a side chain read outwards from the residue. *: point of attachment. C18 diacid = O=C(O)CCCCCCCCCCCCCCCCC(=O)*; αMePhe(2-F) = C[C@](N)(Cc1ccccc1F)C(=O)O; γGlu = O=C(O)[C@H](CCC(=O)[*:2])N[*:1]; αMe4Pal = C[C@](N)(Cc1ccncc1)C(=O)O; αMeY = C[C@](N)(Cc1ccc(O)cc1)C(=O)O; 4Pal = N[C@@H](Cc1ccncc1)C(=O)O; αMeL = CC(C)C[C@](C)(N)C(=O)O; αMeS = C[C@](N)(CO)C(=O)O; Orn = NCCC[C@H](N)C(=O)O; AEEA = NCCOCCOCC(=O)O; Aib = CC(C)(N)C(=O)O

Legend:
hGLP-1R [1] = molecular target: T1, hGLP-1R (Homo sapiens, UniProt P43220); test: Functional cAMP activity in the presence of 1% HSA; format: cell-based; conditions: read-out: cAMP Rel EC50, hGLP-1R
hGLP-1R [2] = molecular target: T1, hGLP-1R; test: Functional cAMP activation in the presence of 0.1% casein (no HSA); format: cell-based; conditions: read-out: Relative cAMP EC50, hGLP-1R;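 on Relative cAMP EC50, hGIPR: intracellular cAMP rise after 30 min at 37 °C read by HTRF against a standard curve, scaled between buffer alone (0%) and top control ligand concentration (100%), four-parameter fit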;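 on Relative cAMP EC50, hGLP-1R: intracellular cAMP rise after 30 min at 37 °C read by HTRF, normalized between buffer only (0%) and maximal control ligand (100%), four-parameter variable-slope fit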
hGIPR [3] = molecular target: T2, hGIPR (Homo sapiens, UniProt P48546); test: Functional cAMP activity in the presence of 1% HSA; format: cell-based; conditions: read-out: cAMP Rel EC50, hGIPR
T2 sequence (P48546 22-466): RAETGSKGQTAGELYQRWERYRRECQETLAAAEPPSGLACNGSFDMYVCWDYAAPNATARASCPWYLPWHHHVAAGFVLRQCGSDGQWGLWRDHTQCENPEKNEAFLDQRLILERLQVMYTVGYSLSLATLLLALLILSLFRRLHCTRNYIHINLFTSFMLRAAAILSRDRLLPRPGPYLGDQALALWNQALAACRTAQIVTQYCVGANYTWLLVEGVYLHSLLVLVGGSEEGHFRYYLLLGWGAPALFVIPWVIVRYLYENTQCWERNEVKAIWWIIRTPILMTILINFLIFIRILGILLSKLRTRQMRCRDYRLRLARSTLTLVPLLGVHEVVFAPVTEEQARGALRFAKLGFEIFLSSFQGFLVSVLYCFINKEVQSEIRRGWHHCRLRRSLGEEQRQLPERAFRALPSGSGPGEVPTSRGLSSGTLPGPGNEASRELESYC

hGcgR = hGcgR (Homo sapiens, UniProt P47871); test: Functional cAMP activation in the presence of 0.1% casein (no HSA); format: cell-based; conditions: read-out: Relative cAMP EC50, hGcgR;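 further: intracellular cAMP rise after 30 min at 37 °C, read by HTRF against a cAMP standard curve, scaled from buffer only (0%) to maximal control ligand response (100%)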
in vivo [4] = test: in vivo; set-up: species or system Sprague Dawley rats; conditions: male, Sprague Dawley, rat, 4 mg/kg
Method: The pharmacokinetics of the exemplary analogs are evaluated following a single subcutaneous (SC) administration of 10 nmol/kg (dissolved in 40 mM Tris pH8) or single 4 mg/kg (mixed with 250 mM sodium decanoate/C10 in 40 mM Tris pH8) intrajejunal (IJ) administration to male Sprague Dawley rats. Blood samples are collected over 96 hours following SC administration and 72 hours following IJ dosing, and resulting individual plasma concentrations are used to calculate pharmacokinetic parameters. Peptide plasma (K3 EDTA) concentrations are determined using a qualified LC/MS method that measured the intact mass of the analog. Each peptide and an analog as an internal standard are extracted from rat plasma using methanol. A High Resolution Instrument was used for LC/MS detection.

hGIPR [5] = molecular target: T2, hGIPR; test: Functional cAMP activation in the presence of 0.1% casein (no HSA); format: cell-based; conditions: read-out: Relative cAMP EC50, hGIPR;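 on Relative cAMP EC50, hGIPR: intracellular cAMP rise after 30 min at 37 °C read by HTRF against a standard curve, scaled between buffer alone (0%) and top control ligand concentration (100%), four-parameter fit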;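 on Relative cAMP EC50, hGLP-1R: intracellular cAMP rise after 30 min at 37 °C read by HTRF, normalized between buffer only (0%) and maximal control ligand (100%), four-parameter variable-slope fit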
human GcgR = human GcgR (Homo sapiens, UniProt P47871); test: Functional cAMP activity in the presence of 1% HSA; format: cell-based; conditions: read-out: cAMP Rel EC50, hGcgR
[6] = tested on: Intestinal organoid from Göttingen minipig jejunum tissue, 2D monolayer; test: Cell based in vitro permeability (Papp) assay; format: in vitro ADME
How it was run: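 Papp calculated from LC/MS peptide levels in apical and basal compartments. Basal sampling at 20 min with C10 present, across monolayers grown from dissociated minipig jejunal organoids in transwells.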

[7] = Body weight in diet-induced obese C57BL/6 mice; format: in vivo; conditions: 10 nmol/kg SC QD, percent of starting weight, DIO mice, mean ± SEM n=5
How it was run: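 Daily weighing gave body weight as percent of starting value (mean±SEM, n=5) over 9-16 days of SC dosing, once daily or every 3 days, shortly before lights-off. Animals were weight-randomized male C57BL/6 DIO mice, 41-50 g, fed ad libitum on a calorie-rich diet.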

[8] = Pepsin stability assay in simulated gastric fluid; format: in vitro ADME; conditions: pH 1.2, % Intact (SD)
How it was run: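 Peptides (10 mg/mL stock in 50 mM Tris pH 8.0) incubated with pepsin A in simulated gastric fluid at 37° C. with shaking. Aliquots taken at time intervals were quenched with 100 mM ammonium bicarbonate pH 9, and intact peptide remaining was quantified by LC/MS.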

in vivo [9] = test: in vivo; set-up: species or system cynomolgus monkeys; conditions: both sexes, cynomolgus monkey, po
Method: (§1) A study is designed to evaluate the oral bioavailability of Example polypeptides in cynomolgus monkeys. […] Standards and controls are prepared in cynomolgus monkey plasma, and any dilutions required to bring samples into the quantitative range are also performed in control cynomolgus monkey plasma. To control assay variability, an internal standard (IS) is added to all the standards and samples. The Examples and IS are extracted from 100% monkey plasma (50 μL) by protein precipitation using isopropyl alcohol and methanol (50:50 v/v). The samples are then centrifuged (3000 rpm for 10 minutes) and the supernatant is transferred to a Siricco Protein Precipitation Plate. The samples are loaded on a Sep-Pak tC18 SPE microelution plate that is conditioned with 2% formic acid in acetonitrile and water. The compounds are then washed with 2% formic acid in water and eluted using 2% formic acid in acetonitrile into a plate containing 5× Invitrosol and 1% formic acid in water prior to injecting an aliquot (10 μL) on to Xselect CSH C18, 3.5 μm, 2.1×20 mm for LC/MS analysis.
[…] Blood samples are collected up to 504 hours post-dose. Plasma is harvested from blood samples by centrifugation and stored frozen (−70° C.) until analysis. Plasma concentrations of the molecules are detected using the bioanalytical method described above.

human GLP1-R = human GLP1-R (Homo sapiens, UniProt P43220); test: GLP1-R internalization assay in HEK293 cells; format: cell-based
in vivo [10] = test: in vivo; set-up: species or system cynomolgus monkeys; conditions: both sexes, cynomolgus monkey, iv, 10 nmol/kg
Method: as §1
Blood samples are collected over 504 hours. Plasma is harvested from blood samples by centrifugation and stored frozen (−70° C.) until analysis. Plasma concentrations of the molecules are detected using the bioanalytical method described above.

[11] = in the presence of 0.1% casein (no HSA), geometric mean

hGcgR, sequence (P47871 26-477): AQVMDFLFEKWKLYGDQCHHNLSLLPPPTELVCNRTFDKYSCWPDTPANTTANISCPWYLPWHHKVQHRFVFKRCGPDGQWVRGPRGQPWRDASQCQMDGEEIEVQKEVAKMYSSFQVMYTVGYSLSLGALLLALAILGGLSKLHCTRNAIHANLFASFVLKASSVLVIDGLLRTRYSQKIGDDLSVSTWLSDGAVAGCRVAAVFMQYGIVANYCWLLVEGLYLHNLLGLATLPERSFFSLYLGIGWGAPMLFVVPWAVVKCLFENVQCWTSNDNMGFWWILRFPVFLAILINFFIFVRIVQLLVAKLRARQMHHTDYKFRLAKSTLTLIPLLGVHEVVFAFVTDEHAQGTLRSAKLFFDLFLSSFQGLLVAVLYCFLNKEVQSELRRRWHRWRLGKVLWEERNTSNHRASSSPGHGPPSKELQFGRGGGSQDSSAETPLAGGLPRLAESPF
human GcgR, sequence (P47871 26-477): as above
T1 sequence (P43220 24-463): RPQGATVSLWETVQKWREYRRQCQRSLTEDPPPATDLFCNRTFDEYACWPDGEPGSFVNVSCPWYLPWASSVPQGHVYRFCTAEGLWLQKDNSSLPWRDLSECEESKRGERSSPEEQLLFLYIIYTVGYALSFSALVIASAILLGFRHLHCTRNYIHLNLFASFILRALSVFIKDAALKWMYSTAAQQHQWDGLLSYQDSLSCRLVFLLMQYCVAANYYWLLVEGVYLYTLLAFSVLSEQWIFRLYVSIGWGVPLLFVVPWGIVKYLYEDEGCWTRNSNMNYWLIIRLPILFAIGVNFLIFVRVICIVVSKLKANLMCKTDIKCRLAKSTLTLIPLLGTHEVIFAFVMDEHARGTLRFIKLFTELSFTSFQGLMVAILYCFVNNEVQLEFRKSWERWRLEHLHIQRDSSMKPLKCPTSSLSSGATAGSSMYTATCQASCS
human GLP1-R, sequence (P43220 24-463): as above

Compound	EC50 (hGLP-1R [1])	EC50 (hGLP-1R [2]; [11])	EC50 (hGIPR [3])	EC50 (hGcgR; [11])	CL/F (in vivo [4])	half-life (in vivo [4])	EC50 (hGIPR [5]; [11])	EC50 (human GcgR)	other results
CC[C@H](C)[C@H](NC(=O)[C@H](Cc1ccccc1)NC(=O)[C@H](C)NC(=O)C(C)(C)NC(=O)[C@H](CCC(N)=O)NC(=O)[C@H](C)NC(=O)[C@H](CCCCNC(=O)COCCOCCNC(=O)CC[C@H](NC(=O)CCCCCCCCCCCCCCCCC(=O)O)C(=O)O)NC(=O)[C@H](CCCCN)NC(=O)[C@H](CC(=O)O)NC(=O)[C@H](CC(C)C)NC(=O)[C@H](CC(C)C)NC(=O)[C@@H](NC(=O)[C@H](CO)NC(=O)[C@H](Cc1ccc(O)cc1)NC(=O)[C@H](CC(=O)O)NC(=O)[C@H](CO)NC(=O)[C@@H](NC(=O)[C@](C)(Cc1ccccc1F)NC(=O)[C@@H](NC(=O)CNC(=O)[C@H](CCC(N)=O)NC(=O)C(C)(C)NC(=O)[C@@H](N)Cc1ccc(O)cc1)[C@@H](C)O)[C@@H](C)O)[C@@H](C)CC)C(=O)N[C@@H](CCC(=O)O)C(=O)N[C@@H](Cc1ccc(O)cc1)C(=O)N[C@@H](CC(C)C)C(=O)N[C@@H](CCC(=O)O)C(=O)N[C@@H](CCC(=O)O)C(=O)NCC(=O)NCC(=O)N1CCC[C@H]1C(=O)N[C@@H](CO)C(=O)N[C@@H](CO)C(=O)NCC(=O)N[C@@H](C)C(=O)N1CCC[C@H]1C(=O)N1CCC[C@H]1C(=O)N1CCC[C@H]1C(=O)N[C@@H](CO)C(N)=O [Example 387] (H-Y[Aib]QGT[αMePhe(2-F)]TSDYSILLDKK([AEEA-γGlu-C18 diacid])AQ[Aib]AFIEYLEEGGPSSGAPPPS-NH2)	26.5 nM	0.255 nM	5.64 nM	2.14 nM	14 mL/min/kg	9.2 h	0.0276 nM	184 nM	–
CC[C@H](C)[C@H](NC(=O)[C@H](Cc1ccccc1)NC(=O)[C@H](C)NC(=O)C(C)(C)NC(=O)[C@H](CCC(N)=O)NC(=O)[C@H](C)NC(=O)[C@H](CCCCNC(=O)COCCOCCNC(=O)CC[C@H](NC(=O)CCCCCCCCCCCCCCCCC(=O)O)C(=O)O)NC(=O)[C@H](CCCN)NC(=O)[C@H](CC(=O)O)NC(=O)[C@H](CC(C)C)NC(=O)[C@](C)(CC(C)C)NC(=O)[C@@H](NC(=O)[C@](C)(CO)NC(=O)[C@H](Cc1ccc(O)cc1)NC(=O)[C@H](CC(=O)O)NC(=O)[C@H](CO)NC(=O)[C@@H](NC(=O)[C@](C)(Cc1ccccc1F)NC(=O)[C@@H](NC(=O)CNC(=O)[C@H](CCC(N)=O)NC(=O)C(C)(C)NC(=O)[C@@H](N)Cc1c[nH]cn1)[C@@H](C)O)[C@@H](C)O)[C@@H](C)CC)C(=O)N[C@H](CCC(=O)O)C(=O)N[C@@H](Cc1ccc(O)cc1)C(=O)N[C@@H](CC(C)C)C(=O)N[C@@H](CC(C)C)C(=O)N[C@@H](CCC(=O)O)C(=O)NCC(=O)NCC(=O)N1CCC[C@H]1C(=O)N[C@@H](CO)C(=O)N[C@@H](CO)C(=O)NCC(=O)N[C@@H](CCC(=O)O)C(=O)N1CCC[C@H]1C(=O)N1CCC[C@H]1C(=O)N1CCC[C@H]1C(=O)N[C@@H](CCC(=O)O)C(N)=O [Example 381] (H-H[Aib]QGT[αMePhe(2-F)]TSDY[αMeS]I[αMeL]LD[Orn]K([AEEA-γGlu-C18 diacid])AQ[Aib]AFI[dE]YLLEGGPSSGEPPPE-NH2)	24.5 nM	0.157 nM	7.01 nM	1.39 nM	9.83 mL/min/kg	8.3 h	0.0156 nM	176 nM	–
H-Y[Aib]QGT[αMePhe(2-F)]TSD[4Pal][αMeS]I[αMeL]LD[Orn]K([AEEA-γGlu-C18 diacid])AQ[αMe4Pal]EFI[dE][αMeY]LVEGGPSSGAPPPSGS-NH2 [Example 694]	25 nM	–	0.787 nM	–	–	–	–	206 nM	Relative Papp (Compared to internal standard) [6]: 0.60; Body weight (%) ([7]; 7 days): 71.92 ± 1.28 %; Body weight (%) ([7]; 14 days): 69.77 ± 2.96 %; EC50 (hGLP-1R [2]): 0.253 nM; EC50 (hGcgR): 2.04 nM; remaining at 0.25 h, 0.4 mg/mL [8]: 101%; EC50 (hGIPR [5]): 0.00781 nM; bioavailability (in vivo [9]; 10 mg): 2.4%; AUC(0-inf) (in vivo [9]; 300 mg): 14.8 µM·h; CL/F (in vivo [9]; 300 mg): 0.873 mL/min/kg; Cmax (in vivo [9]; 300 mg): 353 nM; Tmax (in vivo [9]; 300 mg): 3.5 h; half-life (in vivo [9]; 300 mg): 50.7 h; EC50 (human GLP1-R; HEK293 cells expressing SNAP-GLP-1R, read-out: GLP1R Internalization EC50): 21.8 nM; Internalization % TOP (human GLP1-R; normalized to maximum concentration of GLP-1 (100%)): 97.3%; AUC(0-inf) (in vivo [10]): 10.7 ± 2.75 µM·h; clearance (in vivo [10]): 0.0163 mL/min/kg; half-life (in vivo [10]): 50.7 ± 16.8 h
